One compound from PMC9760444, “Direct targeting of sEH with alisol B alleviated the apoptosis, inflammation, and oxidative stress in cisplatin-induced acute kidney injury” (International Journal of Biological Sciences, 2023) can be followed below.

In the assay the target is T1, soluble epoxide hydrolase (sEH) (Homo sapiens, UniProt P34913).
T1 construct: gene EPHX2; Recombinant human sEH
T1 sequence (P34913 1-555): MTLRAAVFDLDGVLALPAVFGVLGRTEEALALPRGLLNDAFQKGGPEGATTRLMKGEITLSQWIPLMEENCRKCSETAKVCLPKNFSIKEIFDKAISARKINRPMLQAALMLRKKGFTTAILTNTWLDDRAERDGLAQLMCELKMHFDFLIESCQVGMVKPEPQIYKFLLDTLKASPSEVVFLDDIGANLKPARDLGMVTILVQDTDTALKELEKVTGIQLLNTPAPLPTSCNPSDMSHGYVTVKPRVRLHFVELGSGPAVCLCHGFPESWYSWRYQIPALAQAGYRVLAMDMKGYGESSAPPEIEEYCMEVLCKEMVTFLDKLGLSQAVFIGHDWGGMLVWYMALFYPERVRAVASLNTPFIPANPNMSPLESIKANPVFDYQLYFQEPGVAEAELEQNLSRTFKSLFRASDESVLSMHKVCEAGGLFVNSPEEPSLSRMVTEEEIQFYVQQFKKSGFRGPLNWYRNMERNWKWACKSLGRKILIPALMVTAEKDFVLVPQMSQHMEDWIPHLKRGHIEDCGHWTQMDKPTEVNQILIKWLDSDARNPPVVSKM
The experiment in a line: SPR (Biacore T200); supported by inhibition kinetics (Ki […]), pull-down, CETSA, SIP, DARTS. The assay is classed as binding.

Structures are written as SMILES.

On to `C[C@H](C[C@H](O)[C@H]1OC1(C)C)C1=C2C[C@H](O)[C@H]3[C@@]4(C)CCC(=O)C(C)(C)[C@@H]4CC[C@]3(C)[C@@]2(C)CC1` [alisol B], for which binding was put at a Kd of 1320 nM.
